According to patent US20120101095A1, “ALKOXY-THIENOPYRIMIDINES AS TGF-BETA RECEPTOR KINASE MODULATORS” (priority 2009, published 2012):

Molecular target: T1, GST-ALK5 (Homo sapiens, UniProt P36897)
T1 sequence (P36897 34-503): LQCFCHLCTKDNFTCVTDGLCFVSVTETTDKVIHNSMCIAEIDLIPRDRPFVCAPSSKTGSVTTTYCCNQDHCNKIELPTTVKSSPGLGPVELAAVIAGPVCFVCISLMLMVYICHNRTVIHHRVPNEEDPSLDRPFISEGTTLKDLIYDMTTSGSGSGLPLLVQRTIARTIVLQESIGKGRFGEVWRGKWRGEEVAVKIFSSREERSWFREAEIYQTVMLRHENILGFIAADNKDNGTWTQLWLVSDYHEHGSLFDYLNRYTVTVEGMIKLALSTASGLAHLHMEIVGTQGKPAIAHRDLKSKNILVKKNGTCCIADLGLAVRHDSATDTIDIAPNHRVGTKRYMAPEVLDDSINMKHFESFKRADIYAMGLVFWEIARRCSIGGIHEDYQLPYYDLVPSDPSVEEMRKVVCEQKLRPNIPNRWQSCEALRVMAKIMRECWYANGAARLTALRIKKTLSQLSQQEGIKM
Assay: In-vitro (enzyme) kinase assay, 384-well flashplate, GST-SMAD2 substrate
Assay type: biochemical
Conditions: 31.2 nM GST-ALK5, 439 nM GST-SMAD2, 3 mM ATP, 30° C., 45 min
Procedure: In-Vitro (Enzyme) Assay for Determination of the Efficacy of Inhibitors of the Inhibition of TGF-Beta-Mediated Effects
The kinase assay was carried out as 384-well flashplate assay. 31.2 nM of GST-ALK5, 439 nM of GST-SMAD2 and 3 mM of ATP (with 0.3 μCi of ^33P-ATP/well) were incubated in a total volume of 35 μl (20 mM of HEPES, 10 mM of MgCl2, 5 mM of MnCl2, 1 mM of DTT, 0.1% of BSA, pH 7.4) without or with test substance (5-10 concentrations) at 30° C. for 45 min. The reaction was stopped using 25 μl of 200 mM EDTA solution, filtered with suction at room temperature after 30 min, and the wells were washed with 3 times 100 μl of 0.9% NaCl solution. Radioactivity was measured in the TopCount. The IC50 values were calculated using RS1 (Table 1). Above and below, all temperatures were indicated in ° C.

| IC50 | SMILES |
| --- | --- |
| 100 to 500 nM | Cc1ccc(-c2nc(OCc3ccccn3)nc3sc(C(N)=O)c(N)c23)o1 [No 38, 5-Amino-4-(5-methyl-furan-2-yl)-2-(pyridin-2-ylmethoxy)-thieno[2,3-d]pyrimidine-6-carboxylic acid amide] |
| < 100 nM | Cc1cccc(-c2nc(OCCCn3cccn3)nc3sc(C(N)=O)c(N)c23)n1 [No 49, 5-Amino-4-(6-methyl-pyridin-2-yl)-2-(3-pyrazol-1-yl-propoxy)-thieno[2,3-d]pyrimidine-6-carboxylic acid amide] |
| < 100 nM | COc1nc(-c2cccc(C)n2)c2c(N)c(C(N)=O)sc2n1 [No 25, 5-Amino-2-methoxy-4-(6-methyl-pyridin-2-yl)-thieno[2,3-d]pyrimidine-6-carboxylic acid amide] |
| 100 to 500 nM | NC(=O)CCCOc1nc(-c2cccc(Cl)c2)c2c(N)c(C(N)=O)sc2n1 [No 69, 5-Amino-2-(3-carbamoyl-propoxy)-4-(3-chloro-phenyl)-thieno[2,3-d]pyrimidine-6-carboxylic acid amide] |
| 100 to 500 nM | NC(=O)c1sc2nc(OCCn3ccnc3)nc(-c3cccc(Cl)c3)c2c1N [No 43, 5-Amino-4-(3-chloro-phenyl)-2-(2-imidazol-1-yl-ethoxy)-thieno[2,3-d]pyrimidine-6-carboxylic acid amide] |
| < 100 nM | Cc1ncsc1CCOc1nc(-c2cccc(Cl)c2)c2c(N)c(C(N)=O)sc2n1 [No 51, 5-Amino-4-(3-chloro-phenyl)-2-[2-(4-methyl-thiazol-5-yl)-ethoxy]-thieno[2,3-d]pyrimidine-6-carboxylic acid amide] |
| 100 to 500 nM | Cc1ccc(-c2nc(OCCCO)nc3sc(C(N)=O)c(N)c23)o1 [No 22, 5-Amino-2-(3-hydroxy-propoxy)-4-(5-methyl-furan-2-yl)-thieno[2,3-d]pyrimidine-6-carboxylic acid amide] |
| 100 to 500 nM | Cc1ccc(-c2nc(OCCO)nc3sc(C(N)=O)c(N)c23)o1 [No 21, 5-Amino-2-(2-hydroxy-ethoxy)-4-(5-methyl-furan-2-yl)-thieno[2,3-d]pyrimidine-6-carboxylic acid amide] |
| 100 to 500 nM | Cc1cccc(-c2nc(OCCN3CCCC3=O)nc3sc(C(N)=O)c(N)c23)n1 [No 53, 5-Amino-4-(6-methyl-pyridin-2-yl)-2-[2-(2-oxo-pyrrolidin-1-yl)-ethoxy]-thieno[2,3-d]pyrimidine-6-carboxylic acid amide] |
| < 100 nM | NC(=O)c1sc2nc(OCCn3cccn3)nc(-c3cccc(Cl)c3)c2c1N [No 42, 5-Amino-4-(3-chloro-phenyl)-2-(2-pyrazol-1-yl-ethoxy)-thieno[2,3-d]pyrimidine-6-carboxylic acid amide] |
| < 100 nM | Cn1ccc(COc2nc(-c3cccc(Cl)c3)c3c(N)c(C(N)=O)sc3n2)n1 [No 46, 5-Amino-4-(3-chloro-phenyl)-2-(1-methyl-1H-pyrazol-3-ylmethoxy)-thieno[2,3-d]pyrimidine-6-carboxylic acid amide] |
| < 100 nM | Cc1cccc(-c2nc(OCc3ccn(C)n3)nc3sc(C(N)=O)c(N)c23)n1 [No 28, 5-Amino-2-(1-methyl-1H-pyrazol-3-ylmethoxy)-4-(6-methyl-pyridin-2-yl)-thieno[2,3-d]pyrimidine-6-carboxylic acid amide] |
| < 100 nM | Cc1cccc(-c2nc(OCCn3cccn3)nc3sc(C(N)=O)c(N)c23)n1 [No 27, 5-Amino-4-(6-methyl-pyridin-2-yl)-2-(2-pyrazol-1-yl-ethoxy)-thieno[2,3-d]pyrimidine-6-carboxylic acid amide] |

More lines, now with the values behind:

| SMILES | IC50 |
| --- | --- |
| COCCOc1nc(-c2cccc(C(F)(F)F)c2)c2c(N)c(C(N)=O)sc2n1 [No 16, 5-Amino-2-(2-methoxy-ethoxy)-4-(3-trifluoromethyl-phenyl)-thieno[2,3-d]pyrimidine-6-carboxylic acid amide] | 500 to 1000 nM |
| CC(C)(C)OCCOc1nc(-c2cccc(C(F)(F)F)c2)c2c(N)c(C(N)=O)sc2n1 [No 12, 5-Amino-2-(2-tert-butoxy-ethoxy)-4-(3-trifluoromethyl-phenyl)-thieno[2,3-d]pyrimidine-6-carboxylic acid amide] | 500 to 1000 nM |
| NC(=O)c1sc2nc(OC3CCC(O)C3)nc(-c3cccc(Cl)c3)c2c1N (stereo not drawn) [No 64, 5-Amino-4-(3-chloro-phenyl)-2-(3-hydroxy-cyclopentyloxy)-thieno[2,3-d]pyrimidine-6-carboxylic acid amide] | 100 to 500 nM |
| COc1nc(-c2cccc(C(F)(F)F)c2)c2c(N)c(C(N)=O)sc2n1 [No 5, 5-Amino-2-methoxy-4-(3-trifluoromethyl-phenyl)-thieno[2,3-d]pyrimidine-6-carboxylic acid amide] | 100 to 500 nM |
| NC(=O)c1sc2nc(OCCN3CCOC3=O)nc(-c3cccc(Cl)c3)c2c1N [No 57, 5-Amino-4-(3-chloro-phenyl)-2-[2-(2-oxo-oxazolidin-3-yl)-ethoxy]-thieno[2,3-d]pyrimidine-6-carboxylic acid amide] | < 100 nM |
| NC(=O)c1sc2nc(OCCN3CCOCC3=O)nc(-c3cccc(Cl)c3)c2c1N [No 55, 5-Amino-4-(3-chloro-phenyl)-2-[2-(3-oxo-morpholin-4-yl)-ethoxy]-thieno[2,3-d]pyrimidine-6-carboxylic acid amide] | < 100 nM |
| C=CCOc1nc(-c2cccc(Cl)c2)c2c(N)c(C(N)=O)sc2n1 [No 3, 2-Allyloxy-5-amino-4-(3-chloro-phenyl)-thieno[2,3-d]pyrimidine-6-carboxylic acid amide] | < 100 nM |
| NC(=O)c1sc2nc(OC[C@@H]3CCCN3)nc(-c3cccc(Cl)c3)c2c1N [No 76, 5-Amino-4-(3-chloro-phenyl)-2-((S)-1-pyrrolidin-2-ylmethoxy)-thieno[2,3-d]pyrimidine-6-carboxylic acid amide] | > 1000 nM |
| Cc1ccc(-c2nc(OCc3ccn(C)n3)nc3sc(C(N)=O)c(N)c23)o1 [No 32, 5-Amino-4-(5-methyl-furan-2-yl)-2-(1-methyl-1H-pyrazol-3-ylmethoxy)-thieno[2,3-d]pyrimidine-6-carboxylic acid amide] | 100 to 500 nM |
| NC(=O)c1sc2nc(OCCCCC3NC(=O)NC3=O)nc(-c3cccc(Cl)c3)c2c1N (stereo not drawn) [No 78, 5-Amino-4-(3-chloro-phenyl)-2-[4-(2,5-dioxo-imidazolidin-4-yl)-butoxy]-thieno[2,3-d]pyrimidine-6-carboxylic acid amide] | < 100 nM |
| NC(=O)c1sc2nc(O[C@H]3CNC(=O)C3)nc(-c3cccc(Cl)c3)c2c1N [No 63, 5-Amino-4-(3-chloro-phenyl)-2-((R)-5-oxo-pyrrolidin-3-yloxy)-thieno[2,3-d]pyrimidine-6-carboxylic acid amide] | 100 to 500 nM |
| COc1nc(-c2cccc(Cl)c2)c2c(N)c(C(N)=O)sc2n1 [No 6, 5-Amino-4-(3-chloro-phenyl)-2-methoxy-thieno[2,3-d]pyrimidine-6-carboxylic acid amide] | < 100 nM |
| Cc1ccc(-c2nc(O[C@H](C)[C@@H](C)O)nc3sc(C(N)=O)c(N)c23)o1 [No 34, 5-Amino-2-((1R,2R)-2-hydroxy-1-methyl-propoxy)-4-(5-methyl-furan-2-yl)-thieno[2,3-d]pyrimidine-6-carboxylic acid amide] | 100 to 500 nM |
| NC(=O)COc1nc(-c2cccc(Cl)c2)c2c(N)c(C(N)=O)sc2n1 [No 56, 5-Amino-2-carbamoylmethoxy-4-(3-chloro-phenyl)-thieno[2,3-d]pyrimidine-6-carboxylic acid amide] | < 100 nM |
| Cc1ccc(-c2nc(OCCN3CCOCC3)nc3sc(C(N)=O)c(N)c23)o1 [No 20, 5-Amino-4-(5-methyl-furan-2-yl)-2-(2-morpholin-4-yl-ethoxy)-thieno[2,3-d]pyrimidine-6-carboxylic acid amide] | > 1000 nM |
| CC(C)(CO)COc1nc(-c2cccc(Cl)c2)c2c(N)c(C(N)=O)sc2n1 [No 68, 5-Amino-4-(3-chloro-phenyl)-2-(3-hydroxy-2,2-dimethyl-propoxy)-thieno[2,3-d]pyrimidine-6-carboxylic acid amide] | 100 to 500 nM |
| CNC(=O)CCCOc1nc(-c2cccc(Cl)c2)c2c(N)c(C(N)=O)sc2n1 [No 70, 5-Amino-4-(3-chloro-phenyl)-2-(3-methylcarbamoyl-propoxy)-thieno[2,3-d]pyrimidine-6-carboxylic acid amide] | 100 to 500 nM |
